We go through one substance from patent US20140363526A1, “SYNERGISTIC FORMULATION OF PLANT EXTRACTS FOR HEPATIC AND ADRENAL DISORDERS” (Bioved Pharmaceuticals, Inc., priority 2013, published 2014).

The subject of this experiment is dexamethasone induced triglyceride synthesis in human subcutaneous pre-adipocytes. The experiment in a line: Inhibition of long term dexamethasone induced triglyceride synthesis. The format is cell-based. The conditions noted are these: single extracts 1 μg/ml, combined formulation 10 μg/ml, vs DMSO control. How it is done: The study was conducted at a reputed US Contract Research Lab which has access to pooled human subcutaneous pre-adipocytes (female, average age 54.2, average BMI 27.9) from twelve different donors. These were cultured in 96-well plates in DMEM/Ham's F-12 (1:1, v/v) with 10% fetal bovine serum and differentiated according to a standard protocol. The next day, the pre-adipocyte medium was removed and replaced with differentiation medium; namely insulin, dexamethasone and IBMX (3-isobutyl-1-methylxanthine, a competitive nonselective phosphodiesterase inhibitor and a nonselective adenosine receptor antagonist. The media containing the formulations were prepared by different methods (individually and combined). After seven days, 90 μl of differentiation medium was removed and replaced with 120 μl of adipocyte medium (containing dexamethasone and insulin in DMEM). After seven more days, cells were assayed for cytotoxicity and cellular triglyceride content.
Cellular triglycerides were measured by a two-step procedure. […] After 15 minutes, the optical density of each well of the new plate was measured at 540 nm. The absorbance values of the unknown samples were converted to glycerol concentrations by correlation to the glycerol concentration standards using the generated linear regression equation.

Take TNF-a: the “inhibition of TG synthesis” value was “significantly reduced TG synthesis”.
